This note sets out measurements from PubChem BioAssay AID248 (DTP/NCI, 2004).

The assay relates to L1210 leukemia ip in BDF1 mice, survival T/C. Description: NCI In Vivo Anticancer Drug Screen. Data for tumor model L1210 Leukemia (intraperitoneal) in B6D2F1 (BDF1) mice. Particulars: endpoint: mean survival time, higher = longer survival. In short, it runs like this:
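Mice bearing the transplanted tumor received compound or vehicle. Survival of the treated group was divided by that of the vehicle-treated control group to give the ratio.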

Where [1] appears, read: dose: 400.0 mg/kg/injection, schedule: Q01DX009 (ip), vehicle: saline with Tween-80.
Setting [2] is: dose: 100.0 mg/kg/injection, schedule: Q01DX001 (ip), vehicle: carboxymethylcellulose (CMC).
Where [3] appears, read: dose: 400.0 mg/kg/injection, schedule: Q01DX001 (ip), vehicle: carboxymethylcellulose (CMC).
[4] abbreviates: dose: 100.0 mg/kg/injection, schedule: Q04DX003 (ip), vehicle: saline with Tween-80.
Setting [5] is: dose: 200.0 mg/kg/injection, schedule: Q04DX003 (ip), vehicle: saline with Tween-80.
The mark [6] stands for this setting: dose: 400.0 mg/kg/injection, schedule: Q04DX003 (ip), vehicle: saline with Tween-80.
The mark [7] stands for this setting: dose: 100.0 mg/kg/injection, schedule: Q04DX003 (ip), vehicle: Klucel (hydroxypropylcellulose) (HPC).
[8] abbreviates: dose: 200.0 mg/kg/injection, schedule: Q04DX003 (ip), vehicle: Klucel (hydroxypropylcellulose) (HPC).
The mark [9] stands for this setting: dose: 400.0 mg/kg/injection, schedule: Q04DX003 (ip), vehicle: Klucel (hydroxypropylcellulose) (HPC).
Setting [10] is: dose: 50.0 mg/kg/injection, schedule: Q01DX001 (ip), vehicle: saline.
Where [11] appears, read: dose: 100.0 mg/kg/injection, schedule: Q01DX001 (ip), vehicle: saline.
[12] abbreviates: dose: 200.0 mg/kg/injection, schedule: Q01DX001 (ip), vehicle: saline.
The mark [13] stands for this setting: dose: 400.0 mg/kg/injection, schedule: Q01DX001 (ip), vehicle: saline.

Each structure is given as a SMILES string. Several values for one entry are separate records, joined by “and”; a condition that tells them apart may be missing. Equal values may be shown once. Toxic doses and inconclusive results are not listed.

`CCC(C)(C)C(=O)Nc1cccc(OC(=O)NC)c1`: under setting [1], the T/C is 93 % of control.
As to `Cc1cccc(OCc2ccccc2)n1`, the T/C (dose: 50.0 mg/kg/injection, schedule: Q01DX001 (ip), vehicle: carboxymethylcellulose (CMC)) was 103 % of control; the T/C under setting [2] is 105 % of control; the T/C (dose: 200.0 mg/kg/injection, schedule: Q01DX001 (ip), vehicle: carboxymethylcellulose (CMC)) was 100 % of control; the T/C under setting [3] is 100 % of control.
As to `CCCCn1c(=O)cc(C(=O)O)c2ccccc21`, the T/C under setting [4] is 101 % of control, the T/C under setting [5] was 101 % of control and the T/C under setting [6] was 95 % of control.
For the compound `COC(=O)c1c2ccccc2nc2c1c(C)c(C)c1ccccc12`, the T/C under setting [7] was 96 % of control, the T/C under setting [8] was 110 % of control and the T/C under setting [9] was 101 % of control.
With `CC1CN(C(=O)Nc2ccc(Cl)cc2)CC(C)O1` (centres undefined), the T/C by setting is: (dose: 100.0 mg/kg/injection, schedule: Q01DX009 (ip), vehicle: Klucel (hydroxypropylcellulose) (HPC)) 100 % of control; under setting [7], 100 % of control; (dose: 200.0 mg/kg/injection, schedule: Q01DX009 (ip), vehicle: Klucel (hydroxypropylcellulose) (HPC)) 101 % of control; under setting [8], 89 % of control; (dose: 400.0 mg/kg/injection, schedule: Q01DX009 (ip), vehicle: Klucel (hydroxypropylcellulose) (HPC)) 113 % of control; under setting [9], 97 % of control.
For `NC(=O)C1CCCCC1C(N)=O` (centres undefined), the T/C under setting [4] is 96 % of control, the T/C under setting [5] is 102 % of control and the T/C under setting [6] is 96 % of control.
Consider `CC1CCc2[nH]c3ccc4ccccc4c3c2C1` (centres undefined), for which the T/C (dose: 25.0 mg/kg/injection, schedule: Q04DX003 (ip), vehicle: Klucel (hydroxypropylcellulose) (HPC)) was 98 % of control; the T/C (dose: 50.0 mg/kg/injection, schedule: Q04DX003 (ip), vehicle: Klucel (hydroxypropylcellulose) (HPC)) is 95 % of control; the T/C under setting [7] is 93 % of control.
For the compound `CN1C(=O)CCN(CCN2CCC(=O)N(C)C2=S)C1=S`, the T/C by setting is: (dose: 100.0 mg/kg/injection, schedule: Q04DX002 (ip), vehicle: Klucel (hydroxypropylcellulose) (HPC)) 114 % of control; (dose: 200.0 mg/kg/injection, schedule: Q04DX002 (ip), vehicle: Klucel (hydroxypropylcellulose) (HPC)) 103 % of control; (dose: 400.0 mg/kg/injection, schedule: Q04DX002 (ip), vehicle: Klucel (hydroxypropylcellulose) (HPC)) 96 % of control.
Take `O=[N+]([O-])c1ccc(Oc2c(Cl)cc(Cl)cc2Cl)c([N+](=O)[O-])c1`: the T/C was 103 % of control (dose: 222.0 mg/kg/injection, schedule: Q01DX Z (ip), vehicle: methylcellulose (MC)); 105 % of control (dose: 333.0 mg/kg/injection, schedule: Q01DX Z (ip), vehicle: methylcellulose (MC)); 101 % of control (dose: 500.0 mg/kg/injection, schedule: Q01DX Z (ip), vehicle: methylcellulose (MC)).
Turning to `O=C(/C=C/c1ccccc1)c1ccc(O)cc1O`, the T/C by setting is: under setting [10], 97 % of control; under setting [11], 95 % of control; under setting [12], 97 % of control.
As for `CN=[N+]([O-])C1(OC(C)=O)CCCC1`, the T/C runs as follows: (dose: 6.25 mg/kg/injection, schedule: Q01DX001 (ip), vehicle: saline) 117 % of control; (dose: 12.5 mg/kg/injection, schedule: Q01DX001 (ip), vehicle: saline) 110 % of control; (dose: 25.0 mg/kg/injection, schedule: Q01DX001 (ip), vehicle: saline) 117 % of control; under setting [10], 113 % of control.
For the compound `OCCCCOc1ccccc1`, the T/C was 105 % of control under setting [11], 100 % of control under setting [12] and 96 % of control under setting [13].
For the compound `c1cc[c]2c(c1)Oc1cccc[c]1[Sn]21[c]2ccccc2Oc2cccc[c]21`, the T/C is, setting by setting: (dose: 100.0 mg/kg/injection, schedule: Q01DX001 (ip), vehicle: other) 91 % of control; (dose: 200.0 mg/kg/injection, schedule: Q01DX001 (ip), vehicle: other) 96 % of control; (dose: 400.0 mg/kg/injection, schedule: Q01DX001 (ip), vehicle: other) 89 % of control.
On to `O=S(=O)(F)c1ccc(S)c(Cl)c1Cl`, for which the T/C was 102 % of control (dose: 25.0 mg/kg/injection, schedule: Q04DX002 (ip), vehicle: saline with Tween-80); 91 % of control (dose: 50.0 mg/kg/injection, schedule: Q04DX002 (ip), vehicle: saline with Tween-80); 89 % of control (dose: 100.0 mg/kg/injection, schedule: Q04DX002 (ip), vehicle: saline with Tween-80).
For `CSc1nc(=O)[nH]nc1SCc1ccccc1`, the T/C reads like this: (dose: 22.0 mg/kg/injection, schedule: Q01DX015 (ip), vehicle: carboxymethylcellulose (CMC)) 95 % of control; (dose: 33.0 mg/kg/injection, schedule: Q01DX015 (ip), vehicle: carboxymethylcellulose (CMC)) 95 % of control; (dose: 44.0 mg/kg/injection, schedule: Q01DX001 (ip), vehicle: carboxymethylcellulose (CMC)) 100 % of control and 103 % of control; (dose: 50.0 mg/kg/injection, schedule: Q01DX015 (ip), vehicle: carboxymethylcellulose (CMC)) 92 % of control; (dose: 66.0 mg/kg/injection, schedule: Q01DX001 (ip), vehicle: carboxymethylcellulose (CMC)) 98 % of control and 102 % of control; (dose: 75.0 mg/kg/injection, schedule: Q01DX009 (ip), vehicle: saline) 103 % of control. Further, the T/C was 87 % of control (dose: 75.0 mg/kg/injection, schedule: Q01DX015 (ip), vehicle: carboxymethylcellulose (CMC)); 95 % of control and 97 % of control and 284 % of control under setting [2]; 100 % of control under setting [11]; 96 % of control and 89 % of control (dose: 150.0 mg/kg/injection, schedule: Q01DX001 (ip), vehicle: carboxymethylcellulose (CMC)); 95 % of control (dose: 150.0 mg/kg/injection, schedule: Q01DX009 (ip), vehicle: saline); 97 % of control under setting [12]. The T/C reads like this: (dose: 300.0 mg/kg/injection, schedule: Q01DX009 (ip), vehicle: saline) 97 % of control; under setting [3], 160 % of control; under setting [13], 95 % of control.
For `ClC1CCCCCCCCC1`, the T/C was 122 % of control under setting [10], 95 % of control under setting [11] and 92 % of control under setting [13].
In the case of `Cn1nc(C(N)=O)c(C#N)c1N`, the T/C is 103 % of control (dose: 50.0 mg/kg/injection, schedule: Q04DX002 (ip), vehicle: saline); 92 % of control (dose: 100.0 mg/kg/injection, schedule: Q04DX002 (ip), vehicle: saline); 95 % of control (dose: 200.0 mg/kg/injection, schedule: Q04DX002 (ip), vehicle: saline).
Take `CCN(CC)c1ccc2nc3ccc(N(CC)CC)cc3[n+](-c3ccccc3)c2c1`: the T/C (dose: 3.0 mg/kg/injection, schedule: Q01DX009 (ip), vehicle: saline) is 111 % of control and the T/C (dose: 6.0 mg/kg/injection, schedule: Q01DX009 (ip), vehicle: saline) is 115 % of control.
Consider `O=C(Cn1ccc(=O)[nH]c1=O)Nc1nccs1`, for which the T/C was 102 % of control (dose: 6.25 mg/kg/injection, schedule: Q01DX009 (ip), vehicle: saline); 104 % of control (dose: 12.5 mg/kg/injection, schedule: Q01DX009 (ip), vehicle: saline); 122 % of control (dose: 12.5 mg/kg/injection, schedule: Q04DX003 (ip), vehicle: saline); 103 % of control (dose: 25.0 mg/kg/injection, schedule: Q01DX009 (ip), vehicle: saline); 95 % of control (dose: 25.0 mg/kg/injection, schedule: Q04DX003 (ip), vehicle: saline).
Consider `O=C(CSc1cc(-c2ccc(Cl)cc2)s[s+]1)c1ccccc1`, for which the T/C reads like this: (dose: 100.0 mg/kg/injection, schedule: Q01DX009 (ip), vehicle: saline with Tween-80) 100 % of control; under setting [4], 93 % of control; (dose: 200.0 mg/kg/injection, schedule: Q01DX009 (ip), vehicle: saline with Tween-80) 97 % of control; under setting [5], 96 % of control; under setting [1], 103 % of control; under setting [6], 100 % of control.
